Literature values in patent publication US6936590B2, “C-aryl glucoside SGLT2 inhibitors and method” (Bristol Myers Squibb Company, priority 2001, dated 2005).

Key:
human SGLT1 = molecular target: T1, human SGLT1 (Homo sapiens, UniProt P13866); conditions: read-out: Km values for uptake
T1 sequence (P13866 1-664): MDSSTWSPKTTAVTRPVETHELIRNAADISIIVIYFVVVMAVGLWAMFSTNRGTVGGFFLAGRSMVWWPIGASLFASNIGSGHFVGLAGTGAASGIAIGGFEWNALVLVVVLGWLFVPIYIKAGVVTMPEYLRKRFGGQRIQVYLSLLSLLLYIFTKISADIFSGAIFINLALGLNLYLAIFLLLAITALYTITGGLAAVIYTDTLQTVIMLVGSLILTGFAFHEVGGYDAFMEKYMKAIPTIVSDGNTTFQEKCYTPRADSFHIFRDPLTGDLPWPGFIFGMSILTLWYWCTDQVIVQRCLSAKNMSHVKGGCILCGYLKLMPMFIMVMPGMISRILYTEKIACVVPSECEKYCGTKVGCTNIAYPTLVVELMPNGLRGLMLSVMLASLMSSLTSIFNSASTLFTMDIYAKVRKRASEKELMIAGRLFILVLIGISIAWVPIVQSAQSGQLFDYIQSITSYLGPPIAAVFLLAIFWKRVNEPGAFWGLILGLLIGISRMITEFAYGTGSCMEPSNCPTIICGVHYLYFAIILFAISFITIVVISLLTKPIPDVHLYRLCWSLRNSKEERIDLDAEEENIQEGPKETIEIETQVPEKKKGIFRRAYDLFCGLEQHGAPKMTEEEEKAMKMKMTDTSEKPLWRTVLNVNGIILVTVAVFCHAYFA

human SGLT2 = molecular target: T2, human SGLT2 (Homo sapiens, UniProt P31639); conditions: read-out: Km values for uptake
T2 sequence (P31639 1-672): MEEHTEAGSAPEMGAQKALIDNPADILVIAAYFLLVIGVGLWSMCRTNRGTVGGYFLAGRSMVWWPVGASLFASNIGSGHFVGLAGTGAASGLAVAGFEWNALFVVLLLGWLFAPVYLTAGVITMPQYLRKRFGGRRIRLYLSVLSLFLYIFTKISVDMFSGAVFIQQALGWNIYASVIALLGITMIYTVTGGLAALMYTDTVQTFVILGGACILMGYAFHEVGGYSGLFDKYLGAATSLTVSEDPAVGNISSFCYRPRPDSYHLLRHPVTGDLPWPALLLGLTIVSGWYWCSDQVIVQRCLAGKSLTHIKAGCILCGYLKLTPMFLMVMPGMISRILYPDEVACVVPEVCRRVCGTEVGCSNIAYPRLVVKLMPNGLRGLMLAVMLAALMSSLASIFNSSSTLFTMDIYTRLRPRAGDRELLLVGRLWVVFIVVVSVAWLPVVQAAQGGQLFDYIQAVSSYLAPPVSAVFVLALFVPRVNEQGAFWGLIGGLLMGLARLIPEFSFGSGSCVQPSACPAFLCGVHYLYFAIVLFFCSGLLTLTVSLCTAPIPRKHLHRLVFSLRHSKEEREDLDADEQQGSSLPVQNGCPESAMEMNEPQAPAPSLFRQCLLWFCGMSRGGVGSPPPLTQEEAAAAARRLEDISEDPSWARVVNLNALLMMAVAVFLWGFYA

Compound | Km (human SGLT1) [µM] | Km (human SGLT2) [µM] | adverse effects on plasma ion balance, renal function or renal morphology (SGLT activity; phlorizin treatment for as long as two weeks) | effect on glucose excretion and plasma glucose (SGLT activity; several diabetic rodent models and one canine diabetes model)
CO[C@H]1O[C@H](CO)[C@@H](O)[C@H](O)[C@H]1O [AMG, α-methyl-D-glucopyranoside] | 400 | 1600 | – | –
O=C(CCc1ccc(O)cc1)c1c(O)cc(O)cc1O[C@@H]1O[C@H](CO)[C@@H](O)[C@H](O)[C@H]1O [phlorizin] | – | – | No adverse effects on plasma ion balance, renal function or renal morphology have been observed | promoting glucose excretion, lowering fasting and fed plasma glucose, and promoting glucose utilization without hypoglycemic side effects
